± gives the standard deviation of the averaged measurements.
Columns and labels:
[1] = compound: CCN(CC)CCNC(=O)c1c(C)[nH]c(/C=C2\C(=O)Nc3ccc(F)cc32)c1C [SUNITINIB]; test: surviving fraction relative to DMSO-only wells; higher = less growth inhibition; settings: exposure time: 5 days
How it was run: (§1)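 For each tumour cell line, log-phase cells were put into 384-well plates at 250–500 cells per well, then after 24 hours exposed continuously for five days to inhibitors at 0.5, 1, 5, 10, 50, 100, 500 and 1000 nM. Viability was assessed by CellTiter-Glo luminescence, with surviving fraction expressed relative to the median of DMSO-only wells. Lines were screened three times and retained only if replicate Pearson r exceeded 0.7 and median Z' exceeded 0.3.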

[2] = compound: NC1(c2ccc(-c3nc4ccn5c(=O)[nH]nc5c4cc3-c3ccccc3)cc2)CCC1 [MK2206]; test: as above; settings: exposure time: 5 days
How it was run: as §1

Test System	surviving fraction ([1]; 0.5 nM)	surviving fraction ([1]; 1 nM)	surviving fraction ([1]; 5 nM)	surviving fraction ([1]; 10 nM)	surviving fraction ([1]; 50 nM)	surviving fraction ([1]; 100 nM)	surviving fraction ([1]; 500 nM)	surviving fraction ([1]; 1000 nM)	surviving fraction ([2]; 0.5 nM)	surviving fraction ([2]; 1 nM)	surviving fraction ([2]; 5 nM)	surviving fraction ([2]; 10 nM)	surviving fraction ([2]; 50 nM)	surviving fraction ([2]; 100 nM)	surviving fraction ([2]; 500 nM)	surviving fraction ([2]; 1000 nM)
SG31 HEADNECK	0.778 ± 0.067	0.858 ± 0.037	0.884 ± 0.12	0.419 ± 0.04	0.93 ± 0.06	0.962 ± 0.14	0.797 ± 0.13	0.343 ± 0.017	1.24 ± 0.29	0.996 ± 0.022	1.1 ± 0.28	1.19 ± 0.2	0.945 ± 0.16	0.916 ± 0.2	0.901 ± 0.13	0.88 ± 0.12
SG32 HEADNECK	–	0.578 ± 0.032	0.771 ± 0.13	0.423 ± 0.078	0.96 ± 0.045	0.609 ± 0.062	0.317 ± 0.048	0.0993 ± 0.011	1.04 ± 0.053	0.975 ± 0.3	1.08 ± 0.24	1.17 ± 0.19	1.51 ± 0.17	1.08 ± 0.13	0.964 ± 0.073	0.83 ± 0.1
SG43 HEADNECK	1.27 ± 0.13	1.25 ± 0.068	0.975 ± 0.18	–	0.824 ± 0.12	1.02 ± 0.13	0.982 ± 0.09	1.52 ± 0.029	1.19 ± 0.62	0.92 ± 0.097	0.894 ± 0.2	0.741 ± 0.14	0.653 ± 0.19	0.505 ± 0.073	0.465 ± 0.17	0.317 ± 0.089
SIHA CERVIX	0.957 ± 0.088	–	0.972 ± 0.04	0.984 ± 0.028	1.11 ± 0.047	1.02 ± 0.086	0.725 ± 0.026	0.418 ± 0.04	0.989 ± 0.041	1 ± 0.043	1.02 ± 0.092	1.04 ± 0.062	0.8803 ± 0.0068	0.876 ± 0.031	0.731 ± 0.013	0.719 ± 0.021
SJSA1 BONE	–	0.869 ± 0.017	–	0.872 ± 0.022	1.02 ± 0.038	–	0.8283 ± 0.0078	0.579 ± 0.011	0.752 ± 0.027	0.825 ± 0.033	0.907 ± 0.028	0.804 ± 0.032	1.66 ± 0.096	1.7 ± 0.048	1.66 ± 0.13	1.71 ± 0.15
SKBR3 BREAST	–	0.795 ± 0.073	0.738 ± 0.1	0.696 ± 0.12	0.875 ± 0.035	0.867 ± 0.084	0.64 ± 0.064	0.492 ± 0.014	0.983 ± 0.076	1.01 ± 0.16	0.942 ± 0.085	0.911 ± 0.032	0.724 ± 0.067	0.581 ± 0.028	0.368 ± 0.02	0.337 ± 0.015
SNU475 LIVER	–	0.729 ± 0.052	0.814 ± 0.049	0.371 ± 0.031	–	0.8163 ± 0.0045	0.752 ± 0.022	0.193 ± 0.01	0.973 ± 0.037	1.04 ± 0.053	1.01 ± 0.027	0.983 ± 0.043	0.9 ± 0.024	0.891 ± 0.018	0.767 ± 0.03	0.653 ± 0.1
SUM44 BREAST	0.82 ± 0.065	0.877 ± 0.02	0.966 ± 0.061	0.915 ± 0.04	1.07 ± 0.076	1.11 ± 0.023	–	0.958 ± 0.013	1.09 ± 0.17	1.19 ± 0.28	1.14 ± 0.24	1.22 ± 0.31	0.993 ± 0.051	1.13 ± 0.21	1.02 ± 0.18	1.09 ± 0.34
SUM149 BREAST	0.797 ± 0.036	0.755 ± 0.016	0.884 ± 0.052	0.213 ± 0.016	0.906 ± 0.061	0.756 ± 0.039	0.619 ± 0.017	0.176 ± 0.01	1.04 ± 0.049	1.05 ± 0.038	1.02 ± 0.058	0.997 ± 0.098	0.937 ± 0.036	0.953 ± 0.029	0.932 ± 0.082	0.872 ± 0.055

Source: the supplement of paper PMC6045584
